In patent US20210205329A1 (The University of North Carolina at Chapel Hill, priority 2018, published 2021):
Where two headings read alike, the source gives them in different places.

Tests used:
[1] = test system: LPS-activated TLR4 signal; assay: LPS-activated TLR4 signaling in RAW264.7 cells (immunoblotting); assay type: cell-based, mouse; details: for effect on TLR4 expression: 0.5 μM or 1 μM, LPS-treated RAW264.7, 24 hrs; for inhibition of LPS-increased pTAK1, TRAF6, NFκB p50, phospho-NF-κB p65, pCREB, HMGB1, MCP-1 and TNFα (overall): 0.5-1.0 μM; for inhibition of LPS-increased pTAK1, TRAF6, NFκB p50, phospho-NF-κB p65, pCREB, HMGB1, MCP-1 and TNFα (overall) / inhibition at 0.5 µM / inhibition at 1 µM / inhibition of LPS-induced NFκB p50 / inhibition of the effect of LPS activation of TLR4 on MCP-1 / inhibition of the effect of LPS activation on TRAF6 / inhibition of the effect of LPS activation on pTAK1 / inhibition of the effect of LPS on HMGB1 / inhibition of the effect of LPS on TNFα / inhibition of the effect of LPS on pCREB / inhibition of the effect of LPS on phospho-NF-κB p65: RAW264.7; for inhibition at 0.5 µM / inhibition at 1 µM: Mus musculus; for inhibition at 0.5 µM / inhibition at 1 µM / inhibition of LPS-induced NFκB p50 / inhibition of the effect of LPS activation of TLR4 on MCP-1 / inhibition of the effect of LPS activation on TRAF6 / inhibition of the effect of LPS activation on pTAK1 / inhibition of the effect of LPS on HMGB1 / inhibition of the effect of LPS on TNFα / inhibition of the effect of LPS on pCREB / inhibition of the effect of LPS on phospho-NF-κB p65: LPS 1 μg/ml, 24 hrs
Description: Cells and reagents. Mouse monocyte macrophage ceils (RAW264.7) that innately express the TLR4 receptor were obtained from American Type Culture Collection (Manassas, Va., USA). The cells were grown in Dulbecco's modified Eagle's medium (DMEM) (Gibco; Gaithersburg, Md., USA) supplemented with 10% fetal bovine serum (FBS, Gemini, West Sacramento, Calif., USA), 1% penicillin/streptomycin 100× (Gibco) at 37° C. in a 5% CO2 humidified atmosphere. The TLR4-specific ligand IPS was purchased from Sigma-Aldrich (St. Louis, Mo., USA) (Cat. #L3024) and added to the cultures (1 μg/ml) 24 hrs before cell collection.
Immunoblotting. The assay used for RAW264.7 cell lysates and co-immunoprecipitation was as previously described (Aurelian et al, 2016; June et al, 2015; Liu et al, 2011). RAW246.7 cells grown on T-75 flasks (n=5 flasks/group) were lysed with radioimmunoprecipitation (RIPA) buffer [20 mM Tris-HCl (pH 7.4), […], 1% Nonidet P-40 (Sigma, St. Louis, Mo., USA), 0.1% SDS (sodium dodecyl sulfate), 0.5% sodium deoxycholate] supplemented with protease and phosphatase inhibitor cocktails (Sigma). The total protein was determined by the bicinchoninic acid assay (BCA, Thermo Fisher Scientific, Waltham, Mass., USA, Cat. #23228 and Cat. #1859078). The proteins (100 μg/lane) were resolved by SDS-polyacrylamide gel electrophoresis using freshly prepared 16×18 cm gels and transferred to polyvinylidene fluoride membranes (PVDF, Bio-Rad, Cat. #162-0177). Blots were blocked with 5% Blotting-Grade Blocker (Bio-Rad, Cat. #1706404; for non-phosphorylated primary antibodies) or 5% BSA (for phosphorylated primary antibodies) for 2 hrs at room temperature (RT) and exposed to primary antibody overnight (4° C.), followed by horseradish peroxidase-labeled secondary antibodies for 1 h (room temp), immunoreactive bands were visualized with the Plus-ECL kit reagents (Perkin Elmer, Waltham, Mass., USA, Cat. #NEL105001EA) followed by exposure to high-performance chemiluminescence film (Hyperfilm ECL; Amersham). Quantitation was by densitometric scanning with a Bio-Rad GS-700 imaging densitometer. Blots were stripped and re-probed with different primary antibodies 3-5 times. Each densitometric measurement was divided by the corresponding β-Actin densitometric measurement and the results [n=5/group] are expressed as the mean β-Actin-adjusted densitometric units±SEM.
To examine whether the neurosteroids inhibit the LPS-activated TLR4 signal, RAW264.7 cells were treated with IPS (1 μg/mi; 24 hrs) in the absence or presence of 3α,5α-THP (0.5 μM, 1 μM) or pregnenolone (0.5 μM, 1 μM), and ceil extracts were assayed for expression of MyD88-dependent pathway members, by immunoblotting with antibodies to pTAK1, monocyte chemotactic protein (MCP-1), TRAF6, TLR4, and transcription factor NFκB p50 (Chattopadhyay S, et al. (2014). Cytokine Growth Factor Rev 25(5): 533-541; Irie T, et al. (2000). FEBS Lett 467(2-3): […]; Lu Y C, et al. (2008). Cytokine 42(2): 145-151).
Because the neurosteroids had relatively little effect on NFκB p50, the possibility that inhibition of other transcription factors and proinflammatory responses may be involved was considered. RAW246.7 ceils were treated as described above and protein extracts were immunoblotted with antibodies to phospho-NF-κB p65, pCREB, the proinflammatory cytokine tumor necrosis factor alpha (TNFα), and high mobility group box-1 (HMGB1), a highly conserved non-histone chromosomal protein, the translocation of which from the intra- to extra-cellular environment is a critical event in inflammatory responses. Indeed, HMGB1 is currently recognized as a cytokine secreted from activated macrophages and other inflammatory cells during the innate immune response and if is believed to function as a TLR4 ligand. […]

[2] = test system: RAW264.7 cells; assay: Non-activated RAW264.7 cells in the absence of LPS (immunoblotting); assay type: cell-based, mouse; details: 1 μM, 24 hrs
Description: FIGS. 3A and 3B depict neurosteroids targeting the activated TLR4 signal by inhibiting TLR4/MD-2 binding. (FIG. 3A) 3α,5α-THP and pregnenolone specifically target the activated TLR4 signal. RAW264.7 cells untreated (CTL) or treated with 3α,5α-THP (THP; 1 μM) or pregnenolone (Preg; 1 μM) were harvested after 24 hrs. […] (FIG. 3B) Neurosteroids inhibit TLR4 signal activation in RAW264.7 ceils by blocking TLR4/MD-2 binding. RAW246.7 cells were treated with IPS (1 μg/ml) without or with 3α,5α-THP (THP; 1.0 μM) or pregnenolone (Preg; 1.0 μM) and protein extracts collected at 24 hrs post-treatment were immunoprecipitated (IP) with antibody to TLR4 or TLR2. The precipitates were immunoblotted (IB) with MD-2 antibody. Normal IgG was used as control. MD-2 co-precipitated with TLR4, but not normal IgG. […] HMGB1 co-precipitated with both TLR4 and TLR2 and its levels were not altered by the neurosteroids.
Immunoblotting. […] The total protein was determined by the bicinchoninic acid assay (BCA, Thermo Fisher Scientific, Waltham, Mass., USA, Cat. #23228 and Cat. #1859078). […] Quantitation was by densitometric scanning with a Bio-Rad GS-700 imaging densitometer. […] Each densitometric measurement was divided by the corresponding β-Actin densitometric measurement and the results [n=5/group] are expressed as the mean β-Actin-adjusted densitometric units±SEM. […]

SMILES: CC(=O)[C@H]1CC[C@H]2[C@@H]3CC[C@H]4C[C@H](O)CC[C@]4(C)[C@H]3CC[C@]12C [3α,5α-THP, (3α,5α)3-hydroxypregnan-20-one]
- effect on TLR4 expression [1]: did not affect
- inhibition of LPS-increased pTAK1, TRAF6, NFκB p50, phospho-NF-κB p65, pCREB, HMGB1, MCP-1 and TNFα (overall) [1]: ~80%
- inhibition at 0.5 µM ([1]; 0.5 μM, read-out: inhibition of LPS-induced NFκB p50): 19.8 ± 7.9%
- inhibition at 0.5 µM ([1]; 0.5 μM, read-out: inhibition of the effect of LPS activation of TLR4 on MCP-1): 81.5 ± 3.8%
- inhibition at 0.5 µM ([1]; 0.5 μM, read-out: inhibition of the effect of LPS activation on TRAF6): 54.5 ± 5.5%
- inhibition at 0.5 µM ([1]; 0.5 μM, read-out: inhibition of the effect of LPS activation on pTAK1): 37.8 ± 7.7%
- inhibition at 0.5 µM ([1]; 0.5 μM, read-out: inhibition of the effect of LPS on HMGB1): 88.9 ± 11%
- inhibition at 0.5 µM ([1]; 0.5 μM, read-out: inhibition of the effect of LPS on TNFα): 77.8 ± 7.3%
- inhibition at 0.5 µM ([1]; 0.5 μM, read-out: inhibition of the effect of LPS on pCREB): 97.2 ± 1.9%
- inhibition at 0.5 µM ([1]; 0.5 μM, read-out: inhibition of the effect of LPS on phospho-NF-κB p65): 90.1 ± 8.5%
- inhibition at 1 µM ([1]; 1.0 μM, read-out: inhibition of LPS-induced NFκB p50): 38.3 ± 7.3%
- inhibition at 1 µM ([1]; 1.0 μM, read-out: inhibition of the effect of LPS activation of TLR4 on MCP-1): 85.2 ± 4.5%
- inhibition at 1 µM ([1]; 1.0 μM, read-out: inhibition of the effect of LPS activation on TRAF6): 55.3 ± 2.6%
- inhibition at 1 µM ([1]; 1.0 μM, read-out: inhibition of the effect of LPS activation on pTAK1): 71.7 ± 3.6%
- inhibition at 1 µM ([1]; 1.0 μM, read-out: inhibition of the effect of LPS on HMGB1): 58.6 ± 5.5%
- inhibition at 1 µM ([1]; 1.0 μM, read-out: inhibition of the effect of LPS on TNFα): 70.9 ± 3.5%
- inhibition at 1 µM ([1]; 1.0 μM, read-out: inhibition of the effect of LPS on pCREB): 94.8 ± 3.4%
- inhibition at 1 µM ([1]; 1.0 μM, read-out: inhibition of the effect of LPS on phospho-NF-κB p65): 88.9 ± 10.8%
- expression of pTAK1, TRAF6, and MCP1 in non-activated cells [2]: failed to inhibit

SMILES: CC(=O)[C@H]1CC[C@H]2[C@@H]3CC=C4C[C@@H](O)CC[C@]4(C)[C@H]3CC[C@]12C [pregnenolone]
- effect on TLR4 expression [1]: did not affect
- inhibition of LPS-induced NFκB p50 ([1]; 0.5 μM): 25.3±7.4%
- inhibition of the effect of LPS activation of TLR4 on MCP-1 ([1]; 0.5 μM): 77.3±7.3%
- inhibition of the effect of LPS activation on TRAF6 ([1]; 0.5 μM): 73.7±1.3%
- inhibition of the effect of LPS activation on pTAK1 ([1]; 0.5 μM): 76.2±2.0%
- inhibition of the effect of LPS on HMGB1 ([1]; 0.5 μM): 52.0±9.8%
- inhibition of the effect of LPS on TNFα ([1]; 0.5 μM): 61.7±3.6%
- inhibition of the effect of LPS on pCREB ([1]; 0.5 μM): 84.8±9.9%
- inhibition of the effect of LPS on phospho-NF-κB p65 ([1]; 0.5 μM): 86.7±7.3%
- inhibition of LPS-induced NFκB p50 ([1]; 1.0 μM): 28.8±6.7%
- inhibition of the effect of LPS activation of TLR4 on MCP-1 ([1]; 1.0 μM): 85.8±4.4%
- inhibition of the effect of LPS activation on TRAF6 ([1]; 1.0 μM): 88.5±6.8%
- inhibition of the effect of LPS activation on pTAK1 ([1]; 1.0 μM): 95.2±2.5%
- inhibition of the effect of LPS on HMGB1 ([1]; 1.0 μM): 57.5±12.8%
- inhibition of the effect of LPS on TNFα ([1]; 1.0 μM): 65.1±7.7%
- inhibition of the effect of LPS on pCREB ([1]; 1.0 μM): 83.7±8.9%
- inhibition of the effect of LPS on phospho-NF-κB p65 ([1]; 1.0 μM): 88.1±5.5%
- inhibition of LPS-increased pTAK1, TRAF6, NFκB p50, phospho-NF-κB p65, pCREB, HMGB1, MCP-1 and TNFα (overall) [1]: ~80%
- expression of pTAK1, TRAF6, and MCP1 in non-activated cells [2]: failed to inhibit
